# Where two headings read alike, the source gives them in different places.
# Columns and labels:
# C. krusei YEM-71 = test: Broth dilution checkerboard, azoles and terbinafine with milbemycin α9 (Table 8); assay type: cell-based; set-up: MIC Reduction Factor, fluconazole / MIC Reduction Factor, itraconazole / MIC Reduction Factor, ketoconazole / MIC Reduction Factor, terbinafine: unit not given beside the values; details: for MIC: Pichia kudriavzevii
# [1] = target: pFLU (MF) efflux pump in S. cerevisiae YEM-38 (Candida albicans, UniProt G1UB37); test: cell-based; assay type: cell-based, C. albicans
# [2] = system: C. glabrata clinical isolates (n = 12); test: microbe, parasite or virus in culture; assay type: cell-based
# [3] = system: S. cerevisiae YEM-3 (no efflux pump introduced); test: microbe, parasite or virus in culture; assay type: cell-based; details: Saccharomyces cerevisiae, read-out: MIC Mb alone
# [4] = system: S. cerevisiae YEM-1 (CDR1 introduced); test: microbe, parasite or virus in culture; assay type: cell-based; details: Saccharomyces cerevisiae, read-out: MIC Mb alone
# [5] = system: S. cerevisiae YEM-39 (CgCDR introduced); test: microbe, parasite or virus in culture; assay type: cell-based; details: Saccharomyces cerevisiae, read-out: MIC Mb alone
# [6] = system: S. cerevisiae YEM-2 (BEN introduced); test: microbe, parasite or virus in culture; assay type: cell-based; details: Saccharomyces cerevisiae, read-out: MIC Mb alone
# [7] = system: C. albicans YEM-11 (BEN overexpressor); test: microbe, parasite or virus in culture; assay type: cell-based; details: Candida albicans, read-out: MIC Mb alone
# [8] = system: C. glabrata YEM-16 (low level CgBEN and CgCDR expression); test: microbe, parasite or virus in culture; assay type: cell-based
# [9] = system: P388 cell line (mouse leukemia), adriamycin sensitive; test: Adriamycin cytotoxicity (MTT), P-glycoprotein assay
# Protocol: (§1) The inhibitory effect of milbemycin β1 against the mammalian P-glycoprotein multi-drug resistant pump was determined following the procedure described by Tsuruo et al (Cancer Res., 1981. 41:1967-1972) with slight modification. The cytotoxicity of antitumor agent, adriamycin, against adriamycin sensitive P388 cell line (mouse leukemia) and its adriamycin resistant subline line (P388/ADM) was measured in the presence of various concentrations of milbemycin β1. […] The assay is performed in serum-free media containing 20 μM of 2-mercaptoethanol. Chemosensitivity to adriamycin was determined […] based on the reduction of MTT (3-[4,5-dimethylthiazol-2-yl]-2,5-diphenyltetrazolium bromide) into blue formazan.
# [10] = system: P388/ADM, adriamycin resistant subline; test: as above
# Protocol: as §1
# C. albicans YEM-13 (BEN) = assay type: cell-based
# [11] = system: C. albicans YEM-15 (CDR1 & CDR2 overexpressor); assay type: cell-based
# [12] = system: C. krusei YEM-52 (ATCC 90878), wild type; test: Minimal concentration to reduce fluconazole MIC sixteen-fold (Table 7); assay type: cell-based; details: YEM-52, wild type
# [13] = YEM-71, milbemycin α9 at FEPImax
# Sequence of pFLU (MF) efflux pump in S. cerevisiae YEM-38 (G1UB37 whole entry): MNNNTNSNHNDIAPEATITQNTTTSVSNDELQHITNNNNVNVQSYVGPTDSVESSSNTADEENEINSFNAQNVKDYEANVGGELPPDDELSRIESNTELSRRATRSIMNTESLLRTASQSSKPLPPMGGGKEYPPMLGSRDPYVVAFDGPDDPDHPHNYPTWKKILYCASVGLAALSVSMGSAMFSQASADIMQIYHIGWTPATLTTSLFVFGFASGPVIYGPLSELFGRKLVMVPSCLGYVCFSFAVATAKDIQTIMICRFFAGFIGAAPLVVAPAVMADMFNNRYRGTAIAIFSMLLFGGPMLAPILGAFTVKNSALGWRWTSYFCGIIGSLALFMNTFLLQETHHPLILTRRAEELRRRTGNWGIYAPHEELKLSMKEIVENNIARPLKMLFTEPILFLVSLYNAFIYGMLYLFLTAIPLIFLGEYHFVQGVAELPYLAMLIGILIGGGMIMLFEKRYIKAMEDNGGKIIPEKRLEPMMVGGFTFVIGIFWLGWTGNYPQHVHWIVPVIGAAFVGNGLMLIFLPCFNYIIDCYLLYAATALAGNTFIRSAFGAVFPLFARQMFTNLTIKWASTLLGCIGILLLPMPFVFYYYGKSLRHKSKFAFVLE
compound,measurement,setting,value
"C/C1=C\C[C@@H]2C[C@@H](C[C@]3(CC[C@H](C)[C@@H](C)O3)O2)OC(=O)[C@@H]2C=C(COC(=O)c3ccc[nH]3)[C@@H](O)[C@H]3OC/C(=C\C=C\[C@H](C)C1)[C@]32O [Compound 11, Milbemycin α9]",MIC,"C. krusei YEM-71; YEM71, read-out: Milbemycin α9 MIC",> 64 µg/mL
same,MIC,"C. krusei YEM-71; YEM71, read-out: Terbinafine MIC in the presence of FEPImax",2 µg/mL
same,"FEPImax (minimal milbemycin α9 conc. for maximum MIC reduction), fluconazole",C. krusei YEM-71; YEM-71,1 µg/mL
same,"FEPImax (minimal milbemycin α9 conc. for maximum MIC reduction), itraconazole",C. krusei YEM-71; YEM-71,0.25 µg/mL
same,"FEPImax (minimal milbemycin α9 conc. for maximum MIC reduction), ketoconazole",C. krusei YEM-71; YEM-71,2 µg/mL
same,"FEPImax (minimal milbemycin α9 conc. for maximum MIC reduction), terbinafine",C. krusei YEM-71; YEM-71,8 ng/mL
same,Fluconazole MIC in the presence of FEPImax,C. krusei YEM-71; [13],8 µg/mL
same,Itraconazole MIC in the presence of FEPImax,C. krusei YEM-71; [13],8 ng/mL
same,Ketoconazole MIC in the presence of FEPImax,C. krusei YEM-71; [13],0.015 µg/mL
same,"MIC Reduction Factor, fluconazole",C. krusei YEM-71; [13],16
same,"MIC Reduction Factor, itraconazole",C. krusei YEM-71; [13],64
same,"MIC Reduction Factor, ketoconazole",C. krusei YEM-71; [13],128
same,"MIC Reduction Factor, terbinafine",C. krusei YEM-71; [13],64
same,IC50,[1],> 100 µM
same,"Fluconazole MIC50, + milbemycin α9",[2],2 µg/mL
same,"Fluconazole MIC Range, + milbemycin α9",[2],<0.25 to 16 µg/mL
same,Reduction of fluconazole MIC90 by milbemycin α9,[2]; C. glabrata (n=12),16 fold
same,"Fluconazole MIC90, + milbemycin α9","[2]; C. glabrata n = 12, MIC (80%) in YPD",8 µg/mL
"CO[C@H]1C[C@@]2(O)/C(CO)=C/C=C/[C@H](C)C/C(C)=C/C[C@@H]3C[C@@H](C[C@]4(CC[C@H](C)[C@@H](C)O4)O3)OC(=O)[C@@H]2C=C1C [Compound 6, Milbemycin β1]",MIC,[3],8 µg/mL
same,MIC,[4],8 µg/mL
same,MIC,[5],8 µg/mL
same,MIC,[6],8 µg/mL
same,MIC,[7],16 µg/mL
same,MIC,"[8]; Nakaseomyces glabratus, read-out: MIC of milbemycin β1 (MB) alone",> 64 µg/mL
same,Fluconazole MIC with 2.5 μg/ml milbemycin β1,[8]; YEM-16,1 µg/mL
same,Fluconazole MIC with 5 μg/ml milbemycin β1,[8]; YEM-16,2 µg/mL
same,Fluconazole MIC with 10 μg/ml milbemycin β1,[8]; YEM-16,2 µg/mL
same,Fluconazole MIC with […] milbemycin β1,[8]; YEM-16,2 µg/mL
same,"Adriamycin TC50, P388",[9]; inhibitor 0.06 μg/ml,9 ng/mL
same,"Adriamycin TC50, P388",[9]; inhibitor 0.25 μg/ml,9 ng/mL
same,"Adriamycin TC50, P388",[9]; inhibitor 0.5 μg/ml,11 ng/mL
same,"Adriamycin TC50, P388",[9]; inhibitor 1 μg/ml,9 ng/mL
same,"Adriamycin TC50, P388",[9]; inhibitor 2 μg/ml,12 ng/mL
same,"Adriamycin TC50, P388",[9]; inhibitor 3.125 μg/ml,11 ng/mL
same,"Adriamycin TC50, P388",[9]; inhibitor […],8 ng/mL
same,"Adriamycin TC50, P388/ADM",[10]; inhibitor 0.06 μg/ml,1955 ng/mL
same,"Adriamycin TC50, P388/ADM",[10]; inhibitor 0.25 μg/ml,660 ng/mL
same,"Adriamycin TC50, P388/ADM",[10]; inhibitor 0.5 μg/ml,369 ng/mL
same,"Adriamycin TC50, P388/ADM",[10]; inhibitor 1 μg/ml,215 ng/mL
same,"Adriamycin TC50, P388/ADM",[10]; inhibitor 2 μg/ml,50 ng/mL
same,"Adriamycin TC50, P388/ADM",[10]; inhibitor 3.125 μg/ml,51 ng/mL
same,"Adriamycin TC50, P388/ADM",[10]; inhibitor […],848 ng/mL
same,Minimal concentration required to reduce the MIC of fluconazole by sixteen-fold,C. albicans YEM-13 (BEN),80 µg/mL
same,Minimal concentration required to reduce the MIC of fluconazole by sixteen-fold,[11],<0.07 µg/mL
same,Minimal concentration required to reduce the MIC of fluconazole by sixteen-fold,[12],1.25 µg/mL

# Source: patent publication US6495591B1, “Fungal efflux pump inhibitors” (Essential Therapeutics, Inc., priority 1997, dated 2002)
